Data as given in patent publication EP1641803B1, “THIENOPYRIMIDINE DERIVATIVES AS POTASSIUM CHANNEL INHIBITORS” (Xention Limited, priority 2003, dated 2004).

Columns and labels:
human Kv1.5 = biological target: T1, human Kv1.5 (Homo sapiens, UniProt P22460); assay: Kv1.5 Rb+ Efflux Assay; assay type: cell-based; settings: inhibition of 86Rb+ efflux through Kv1.5; cells stably transfected with human Kv1.5; 10 point concentration response curves n=2; normalised to 2.5mM 4 amino-pyridine block
T1 construct: expressed in transfected cells
Description: The pore of a potassium channel is permeable to other monovalent cations such as Rb^+ and Tl^+. Analysis of cellular efflux of potassium channel permeable ions enables potassium channel activity to be monitored directly. Cells stably transfected with cDNA for human Kv1.5 (in pEF6::VA-His-TOPO) were grown in Dulbecco's Modified Eagle media (DMEM) alpha supplemented with 10% Fetal Calf Serum (FCS), 20 µl/ml penicillin (5000U/ml) streptomycin (5000µg/ml), 10µl/ml [100x] glutamine, and blasticidin (7.5µg/ml). Cells were dispensed into 96 well cellstar TC plates and allowed to grow until a confluent monolayer was visible. On the morning of the assay run, cold media was aspirated using the TECAN plate washer, and a 50µl media spike containing 2µCi/ml (37kBq/ml) ^86Rb^+ added to each well containing cells using the Shallow-Well Matrix Platemate. Plates were placed in a incubator at 37°C for a minimum of 3 hours. Unloaded ^86Rb^+ in the "hot" media was aspirated and each well washed 4x250µl with Earls Balanced Salt Solution (EBSS) which contained 5mM KCl, 140mM NaCl, 2mM CaCl2, 1mM MgSO4, 10mM HEPES, and 5mM glucose, pH 7.4, 290-300 mOsm. These cells were then pre-incubated with 50µl of EBSS +/- test compounds for 10 minutes at room temperature. After the 10 minute incubation, 50µl of modified EBSS which contained 145mM KCl, 2mM CaCl2, 1mM MgSO4, 10mM HEPES, 5mM glucose, pH 7.4, 290-300 mOsm, was added, and the cells were incubated for a further 10 minutes at room temperature. The high KCl EBSS was used to depolarise cells to a membrane potential that would activate Kv1.5 channels. After the final incubation 80µl/100µl of the reaction from each well was transferred to equivalent wells in a Packard "Optiplate" white 96 well plate and counted in a Packard TopCount liquid scintillation counter by Cerenkov emission. Percentage inhibition ^86Rb^+ efflux through Kv1.5 was calculated by normalisation to 2.5mM 4 amino-pyridine control block of Kv1.5. Alternatively cells were loaded with ^85Rb^+ and quantified by atomic absorption spectroscopy. IC50 determinations were derived from 10 point concentration response curves n=2 using the method described above. Data was fitted as variable slope sigmoidal fit using Graphpad Prism (V3.02) software.

hKv1.5 = hKv1.5 (Homo sapiens, UniProt P22460); assay: Kv1.5 Autopatch Electrophysiology (whole cell patch-clamp); assay type: cell-based; settings: compound at 1µM, room temperature (22-24°C), held at -80mV, step to 0mV for 1000ms, total charge measured
Description: The external bathing solution contained (in mM): 150 NaCl, 10 KCl, […], 3 MgCl2, 1 CaCl2, 10 HEPES, pH 7.4. Patch pipettes were filled with an electrode solution of composition (in mM): 160 KCl, 0.5 MgCl2, 10 HEPES, 1 EGTA, pH 7.4 with KOH.
Compounds were dissolved in DMSO (100 %) and made up in the external bather at a concentration of 1µM. All experiments were conducted at room temperature (22-24°C).
A cell suspension (10 ml), with a density of 100,000 cells/ml, was aliquoted into a 15ml centrifuge tube and transferred to an incubator (37°C, 5% CO2) for approximately one hour before use. Following 60 min incubation, a tube was taken and centrifuged at 1000 rpm for 4 mins at room temperature. 9.5 ml supernatant was thence discarded, leaving a cell pellet at the bottom of the tube. The pellet was then resuspended using 100 µl of cold (4 °C), filtered (0.22 µm), 0.2 % BSA/bather solution (0.02g BSA/10ml bather). The bottom of the tube was manually agitated gently until the solution became cloudy with cells. The 100 µl cell resuspension solution was then stored on the bench at 4 °C (using a Peltier-based temperature control device) until used.
A length of capillary glass (1B150F-4, WPI) was dipped into the cell suspension solution, such that - 3 cm column of fluid was taken up by capillary action. A Ag/AgCl wire was dropped into the non-dipped end of the capillary also. The outside of the solution-filled end of the capillary was then dried and the capillary was loaded into the AutoPatch™. Borosilicate glass patch pipettes (from 1.5mm OD, thin-walled filamented, GC150-TF capillary glass, Harvard) were pulled using a DMZ pipette puller (Zeitz Instruments), and were back-filled using the internal pipette solution, being careful that no bubbles remain at the tip or in the body of the pipette. Patch pipettes typically had resistances of 2.3-3.5 MΩ. Once filled, the pipette tip and a proportion of the shaft (- 15 mm) were dipped into Sigmacote (Sigma). The recording pipette was then loaded into the AutoPatch™.
Automated patch-clamping was initiated by the operator, but thereafter AutoPatch.exe continued the experiment providing that pre-set conditions and criteria were satisfied.
Whole cell patch-clamp recordings were made using the AutoPatch™ rig, which incorporated an EPC9 amplifier (HEKA, Germany) under control of Pulse software (v8.54, HEKA, Germany), a motion controller with 2 translators (Newport, UK), valve controller (VF1) and a c-level suction device all at room temperature (22-24°C). This equipment was completely under the control of AutoPatch.exe and operator intervention was only made when there was a requirement to refill the drug reservoirs or to prevent the loss of a cell due to a technical error. Cells with an Rseries greater than 18 MΩ were discounted from the experiment.
Qualification stages prior to perfusion and drug application ensured that the observed current met the criteria for the experiment. Only those cells with an IK > 500 pA were used for experiments. Cells were continuously perfused with external solution at a flow rate of 1.8-2 ml/minute. […] Online analysis of the hKv1.5 current during the application of compounds was performed by the AutoPatch™ software. Voltage-step protocols and analysis of data was performed as described for conventional electrophysiology.
Electrophysiology voltage-step protocols and analysis of data was performed as follows. Data was sampled at 5kHz, and filtered with a -3 dB bandwidth of 2.5kHz. Cells were held at a voltage of -80mV. Currents were evoked to a voltage step for 1000ms in duration at 0mV every 5s. Currents were analysed using Pulsefit software (v8.54, HEKA, Germany), with the total charge measured during the whole of the voltage step. All other plots were produced using Igor Pro (WaveMetrics).

Sequence of hKv1.5 (P22460 whole entry): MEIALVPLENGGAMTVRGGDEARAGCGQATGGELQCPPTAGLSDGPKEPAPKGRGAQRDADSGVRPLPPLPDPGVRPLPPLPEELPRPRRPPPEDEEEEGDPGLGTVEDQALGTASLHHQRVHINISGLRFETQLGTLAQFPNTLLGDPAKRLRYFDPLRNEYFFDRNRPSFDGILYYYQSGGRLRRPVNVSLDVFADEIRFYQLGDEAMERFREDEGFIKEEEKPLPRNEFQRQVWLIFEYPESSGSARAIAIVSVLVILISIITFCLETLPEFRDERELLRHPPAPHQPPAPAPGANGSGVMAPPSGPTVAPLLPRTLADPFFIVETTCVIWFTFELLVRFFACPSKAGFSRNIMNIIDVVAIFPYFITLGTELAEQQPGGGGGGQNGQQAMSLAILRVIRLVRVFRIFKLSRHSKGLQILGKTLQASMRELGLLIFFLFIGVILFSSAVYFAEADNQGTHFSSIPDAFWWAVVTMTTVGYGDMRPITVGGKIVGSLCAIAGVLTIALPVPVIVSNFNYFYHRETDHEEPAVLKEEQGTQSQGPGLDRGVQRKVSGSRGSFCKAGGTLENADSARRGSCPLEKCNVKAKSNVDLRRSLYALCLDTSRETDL
T1 sequence (P22460 whole entry): as above

SMILES	IC50 (human Kv1.5)	inhibition at 1 µM (hKv1.5)	% Inhibition at 1µM (hKv1.5; 1 µM)
c1ccc(CNc2ncnc3scc(-c4ccccc4)c23)cc1 [Example 86, Benzyl-(5-phenyl-thieno[2,3-d]pyrimidin-4-yl)-amine]	4.36 µM	46%	–
c1ccc(-c2csc3ncnc(NCc4csc(-c5cccs5)n4)c23)cc1 [Example 161, (5-Phenyl-thieno[2,3-d]pyrimidin-4-yl)-(2-thiophen-2-yl-thiazol-4-ylmethyl)-amine]	25.5 µM	79.4%	–
c1ccc(-c2csc3ncnc(NCCCn4ccnc4)c23)cc1 [Example 104, (3-Imidazol-1-yl-propyl)-(5-phenyl-thieno[2,3-d]pyrimidin-4-yl)-amine]	> 30 µM	–	–
COc1ccc(CCNc2ncnc3scc(-c4ccc(C)cc4)c23)cc1OC [Example 127, [2-(3,4-Dimethoxy-phenyl)-ethyl]-(5-p-tolyl-thieno[2,3-d]pyrimidin-4-yl)-amine]	5.3 µM	20.7%	–
FC1(F)Oc2ccc(-c3csc4ncnc(NCc5ccccn5)c34)cc2O1 [Example 326, [5-(2,2-Difluoro-benzo[1,3]dioxol-5-yl)-thieno[2,3-d]pyrimidin-4-yl]-pyridin-2-ylmethyl-amine]	10.4 µM	89%	–
c1ccc(-c2csc3ncnc(OCc4ccco4)c23)cc1 [Example 109, 4-(Furan-2-ylmethoxy)-5-phenyl-thieno[2,3-d]pyrimidine]	0.8 µM	52.3%	–
OCCNc1nc(NCc2ccccn2)c2c(-c3ccccc3)csc2n1 [Example 190, 2-{5-Phenyl-4-[(pyridin-2-ylmethyl)-amino]-thieno[2,3-d]pyrimidin-2-ylamino}-ethanol]	0.26 µM	97.1%	–
Cc1ccc(-c2csc3ncnc(NCCc4ccc5c(c4)OCCO5)c23)cc1C [Example 132, [2-(2,3-Dihydro-benzo[1,4]dioxin-6-yl)-ethyl]-[5-(3,4-dimethyl-phenyl)-thieno[2,3-d]pyrimidin-4-yl]-amine]	4.58 µM	92%	–
c1ccc(-c2csc3nc(NCc4ccco4)nc(NCc4ccco4)c23)cc1 [Example 193, N,N'-Bis(2-furylmethyl)-5-phenylthieno[2,3-d]pyrimidine-2,4-diamine]	2.5 µM	89.2%	–
c1ccc(CCNc2ncnc3scc(-c4ccccc4)c23)cc1 [Example 90, Phenethyl-(5-phenyl-thieno[2,3-d]pyrimidin-4-yl)-amine]	10.1 µM	–	–
COCCNc1ncnc2scc(-c3ccccc3)c12 [Example 113, (2-Methoxy-ethyl)-(5-phenyl-thieno[2,3-d]pyrimidin-4-yl)-amine]	5.27 µM	–	–
Cc1csc2ncnc(NCCc3ccc(Cl)cc3)c12 [Example 125, [2-(4-Chloro-phenyl)-ethyl]-(5-methyl-thieno[2,3-d]pyrimidin-4-yl)-amine]	6.91 µM	–	–
Cc1ccc(-c2csc3ncnc(NCCc4ccccc4)c23)cc1 [Example 130, Phenethyl-(5-p-tolyl-thieno[2,3-d]pyrimidin-4-yl)-amine]	8.05 µM	–	–
Fc1ccc(-c2csc3ncnc(NCc4ccccn4)c23)cc1 [Example 123, [5-(4-Fluoro-phenyl)-thieno[2,3-d]pyrimidin-4-yl]-pyridin-2-ylmethyl-amine]	0.05 µM	–	–

The remaining lines, values ahead:

IC50 (human Kv1.5)	inhibition at 1 µM (hKv1.5)	% Inhibition at 1µM (hKv1.5; 1 µM)	SMILES
3.53 µM	36.3%	–	Cc1ccc(-c2csc3ncnc(NCc4ccco4)c23)nc1 [Example 122, Furan-2-ylmethyl-[5-(5-methyl-pyridin-2-yl)-thieno[2,3-d]pyrimidin-4-yl]-amine]
6.95 µM	–	21.0%	c1csc(CNc2ncnc3scc(-c4cccs4)c23)c1 [Example 98, Thiophen-2-ylmethyl-(5-thiophen-2-yl-thieno[2,3-d]pyrimidin-4-yl)-amine]
1.68 µM	81%	–	c1ccc(CNc2ncnc3scc(C4CCCCC4)c23)nc1 [Example 146, (5-Cyclohexyl-thieno[2,3-d]pyrimidin-4-yl)-pyridin-2-ylmethyl-amine]
2.52 µM	71%	–	c1coc(CNc2ncnc3scc(C4CCCCC4)c23)c1 [Example 147, (5-Cyclohexyl-thieno[2,3-d]pyrimidin-4-yl)-furan-2-ylmethyl-amine]
2.71 µM	74.2%	–	CCc1sc2ncnc(NCc3ccco3)c2c1-c1ccccc1 [Example 140, (6-Ethyl-5-phenyl-thieno[2,3-d]pyrimidin-4-yl)-furan-2-ylmethyl-amine]
0.8 µM	15.3%	–	c1ccc(-c2csc3ncnc(NCC4CC4)c23)cc1 [Example 84, Cyclopropylmethyl-(5-phenyl-thieno[2,3-d]pyrimidin-4-yl)-amine]
> 30 µM	–	–	c1ccc(-c2csc3ncnc(NC4CCCCC4)c23)cc1 [Example 91, Cyclohexyl-(5-phenyl-thieno[2,3-d]pyrimidin-4-yl)-amine]
1.16 µM	–	–	Fc1ccc(-c2csc3ncnc(NCc4ccco4)c23)cc1 [Example 124, [5-(4-Fluoro-phenyl)-thieno[2,3-d]pyrimidin-4-yl]-furan-2-ylmethyl-amine]
5.18 µM	–	–	c1ccc(-c2csc3ncnc(NCC4CCCO4)c23)cc1 (stereo not drawn) [Example 114, (5-Phenyl-thieno[2,3-d]pyrimidin-4-yl)-(tetrahydro-furan-2-ylmethyl)-amine]
> 30 µM	–	–	CCN1CCCC1CNc1ncnc2scc(-c3ccccc3)c12 (stereo not drawn) [Example 102, (1-Ethyl-pyrrolidin-2-ylmethyl)-(5-phenyl-thieno[2,3-d]pyrimidin-4-yl)-amine]
6.16 µM	–	–	c1ccc(-c2csc3ncnc(NCC4OCCO4)c23)cc1 [Example 116, [1,3]Dioxolan-2-ylmethyl-(5-phenyl-thieno[2,3-d]pyrimidin-4-yl)-amine]
